# Measured values taken from ChEMBL document CHEMBL3351272, “Sequential synthesis of amino-1,4-naphthoquinone-appended triazoles and triazole-chromene hybrids and their antimycobacterial evaluation” (Eur J Med Chem, 2014).
# Test system: Mycobacterium tuberculosis
# Assay: Ratio of cycloserine IC50 to compound IC50 for Mycobacterium tuberculosis H37Rv assessed as growth inhibition by microdilution AlamarBlue broth assay
# Format: functional
row,SMILES,Ratio IC50
1,O=C1C=C(N(Cc2cn(Cc3ccccc3)nn2)c2ccc(C(F)(F)F)cc2)C(=O)c2ccccc21,6

# Test system: Mycobacterium tuberculosis
# Assay: Antimycobacterial activity against Mycobacterium tuberculosis H37Rv assessed as growth inhibition by microdilution AlamarBlue broth assay
# Format: functional, organism-based
SMILES,IC50,IC90,MIC
COc1cccc(N(Cc2cn(-c3cc4ccccc4oc3=N)nn2)C2=CC(=O)c3ccccc3C2=O)c1,18.6 µM,37.7 µM,50 µM
C=CCn1cc(CN(C2=CC(=O)c3ccccc3C2=O)c2ccccc2Cl)nn1,6.38 µM,12 µM,25 µM
Cc1ccc(N(Cc2cn(-c3cc4cc(Br)ccc4oc3=N)nn2)C2=CC(=O)c3ccccc3C2=O)cc1,21.9 µM,44.6 µM,100 µM
CCOC(=O)Cn1cc(CN(C2=CC(=O)c3ccccc3C2=O)c2ccc(F)cc2)nn1,17.2 µM,36.5 µM,50 µM
Cc1ccc(N(Cc2cn(CC(=O)c3ccccc3)nn2)C2=CC(=O)c3ccccc3C2=O)cc1,14 µM,28.9 µM,50 µM
N=c1oc2ccc(Cl)cc2cc1-n1cc(CN(C2=CC(=O)c3ccccc3C2=O)c2ccc(F)cc2)nn1,3.18 µM,9.86 µM,25 µM
CCc1nc(N)nc(N)c1-c1ccc(Cl)cc1 [PYRIMETHAMINE],37.4 µM,75 µM,100 µM
N#CCn1cc(CN(C2=CC(=O)c3ccccc3C2=O)c2ccccc2Cl)nn1,11.2 µM,25.9 µM,50 µM
C=CCn1cc(CN(C2=CC(=O)c3ccccc3C2=O)c2ccc(F)cc2)nn1,5.87 µM,14.6 µM,25 µM
NNC(=O)c1ccncc1 [ISONIAZID],,0.29 µM,0.31 µM
O=C1C=C(N(Cc2cn(C3=CC(=O)c4ccccc4C3=O)nn2)c2ccc(Br)cc2)C(=O)c2ccccc21,19.2 µM,46.5 µM,50 µM
N[C@@H]1CONC1=O [CYCLOSERINE],,,25 µM
C=CCn1cc(CN(C2=CC(=O)c3ccccc3C2=O)c2ccccc2C)nn1,15.3 µM,34.3 µM,50 µM
COc1cccc(N(Cc2cn(CC#N)nn2)C2=CC(=O)c3ccccc3C2=O)c1,16.3 µM,25.5 µM,50 µM
COc1cccc(N(Cc2cn(Cc3ccccc3)nn2)C2=CC(=O)c3ccccc3C2=O)c1,24.9 µM,36.4 µM,50 µM
O=C1C=C(N(Cc2cn(Cc3ccccc3)nn2)c2ccccc2Cl)C(=O)c2ccccc21,15.3 µM,44.3 µM,50 µM
Cc1ccc2oc(=N)c(-n3cc(CN(C4=CC(=O)c5ccccc5C4=O)c4ccccc4)nn3)cc2c1,18.6 µM,27.7 µM,50 µM
N#CCn1cc(CN(C2=CC(=O)c3ccccc3C2=O)c2ccc(F)cc2)nn1,2.81 µM,6.13 µM,15 µM
O=C1C=C(N(Cc2cn(Cc3ccccc3)nn2)c2ccc(Cl)cc2Cl)C(=O)c2ccccc21,5.38 µM,9.97 µM,25 µM
NCC[C@H](O)C(=O)N[C@@H]1C[C@H](N)[C@@H](O[C@H]2O[C@H](CN)[C@@H](O)[C@H](O)[C@H]2O)[C@H](O)[C@H]1O[C@H]1O[C@H](CO)[C@@H](O)[C@H](N)[C@H]1O [AMIKACIN],,0.08 µM,0.16 µM
N=c1oc2ccccc2cc1-n1cc(CN(C2=CC(=O)c3ccccc3C2=O)c2ccccc2Cl)nn1,27.2 µM,36.5 µM,50 µM
C=CCn1cc(CN(C2=CC(=O)c3ccccc3C2=O)c2ccc(Cl)cc2)nn1,21.6 µM,45.1 µM,50 µM

SMILES,IC50,IC90,MIC
Cc1ccccc1N(Cc1cn(CC(=O)c2ccccc2)nn1)C1=CC(=O)c2ccccc2C1=O,19.1 µM,37.9 µM,50 µM
Cc1ccc(N(Cc2cn(-c3cc4ccccc4oc3=N)nn2)C2=CC(=O)c3ccccc3C2=O)cc1,23.9 µM,47.6 µM,50 µM
CCOC(=O)Cn1cc(CN(C2=CC(=O)c3ccccc3C2=O)c2ccc(Cl)cc2)nn1,3.28 µM,7.86 µM,25 µM
Cc1ccc(N(Cc2cn(Cc3ccccc3)nn2)C2=CC(=O)c3ccccc3C2=O)cc1,17 µM,38.9 µM,50 µM
C=CCn1cc(CN(C2=CC(=O)c3ccccc3C2=O)c2ccccc2)nn1,25.5 µM,55.4 µM,100 µM
CCOC(=O)Cn1cc(CN(C2=CC(=O)c3ccccc3C2=O)c2ccc(C)cc2)nn1,11.9 µM,27.9 µM,50 µM
CCOC(=O)Cn1cc(CN(C2=CC(=O)c3ccccc3C2=O)c2cccc(OC)c2)nn1,18.6 µM,27.7 µM,50 µM
N=c1oc2ccccc2cc1-n1cc(CN(C2=CC(=O)c3ccccc3C2=O)c2ccc(F)cc2)nn1,8.57 µM,17.7 µM,25 µM
CCOC(=O)Cn1cc(CN(C2=CC(=O)c3ccccc3C2=O)c2ccc(Br)cc2)nn1,8.46 µM,16.4 µM,25 µM
N#CCn1cc(CN(C2=CC(=O)c3ccccc3C2=O)c2ccccc2)nn1,9.95 µM,21.9 µM,25 µM
CCOC(=O)Cn1cc(CN(C2=CC(=O)c3ccccc3C2=O)c2ccccc2Cl)nn1,18.3 µM,36.5 µM,50 µM
O=C1C=C(N(Cc2cn(Cc3ccccc3)nn2)c2ccc(C(F)(F)F)cc2)C(=O)c2ccccc21,1.87 µM,4.6 µM,10 µM
CC[C@@H](CO)NCCN[C@@H](CC)CO [ETHAMBUTOL],< 1.56 µM,,12.5 µM
O=C(Cn1cc(CN(C2=CC(=O)c3ccccc3C2=O)c2ccc(Cl)cc2Cl)nn1)c1ccccc1,13.3 µM,27.9 µM,50 µM
C=CCn1cc(CN(C2=CC(=O)c3ccccc3C2=O)c2cccc(OC)c2)nn1,24.9 µM,36.4 µM,50 µM
O=C1C=C(N(Cc2cn(C3=CC(=O)c4ccccc4C3=O)nn2)c2ccc(Cl)cc2)C(=O)c2ccccc21,7.2 µM,16.5 µM,25 µM
Cc1ccc(N(Cc2cn(-c3cc4ccccc4oc3=N)nn2)C2=CC(=O)c3ccccc3C2=O)c(C)c1,21.6 µM,55.1 µM,100 µM
Cc1ccccc1N(Cc1cn(CC#N)nn1)C1=CC(=O)c2ccccc2C1=O,10.6 µM,19.8 µM,50 µM
Cc1ccc(N(Cc2cn(C3=CC(=O)c4ccccc4C3=O)nn2)C2=CC(=O)c3ccccc3C2=O)cc1,28.6 µM,37.7 µM,50 µM
O=C1C=C(N(Cc2cn(Cc3ccccc3)nn2)c2ccc(Br)cc2)C(=O)c2ccccc21,28.7 µM,47.9 µM,100 µM
O=C1C=C(N(Cc2cn(Cc3ccccc3)nn2)c2ccc(Cl)cc2)C(=O)c2ccccc21,2.58 µM,15.1 µM,25 µM

# Test system: Mycobacterium tuberculosis
# Assay: Ratio of pyrimethamine IC50 to compound IC50 for Mycobacterium tuberculosis H37Rv assessed as growth inhibition by microdilution AlamarBlue broth assay
# Format: functional
row,SMILES,Ratio IC50
1,O=C1C=C(N(Cc2cn(Cc3ccccc3)nn2)c2ccc(C(F)(F)F)cc2)C(=O)c2ccccc21,20
